Source: patent US7662815B2, “Diaryl ether β2 adrenergic receptor agonists” (Theravance, Inc., priority 2004, dated 2010)

Biological target: T1, human β2 adrenergic receptor (Homo sapiens, UniProt P07550)
T1 construct: expressed in transfected cells; membranes prepared from the cells
Assay: Radioligand binding assay on human β1 and β2 adrenergic receptors ([3H]dihydroalprenolol displacement)
Details: binding at β2 versus β1 adrenergic receptor; HEK-293 membranes
Protocol: HEK-293 derived cell lines stably expressing cloned human β1 or β2 adrenergic receptors, respectively, were grown to near confluency in DMEM with 10% dialyzed FBS in the presence of 500 μg/mL Geneticin. The cell monolayer was lifted with Versene 1:5,000 (0.2 g/L EDTA in PBS) using a cell scraper. Cells were pelleted by centrifugation at 1,000 rpm, and cell pellets were either stored frozen at −80° C. or membranes were prepared immediately. […] Protein concentration of the membrane suspension was determined by the method of Bradford (Bradford M M., Analytical Biochemistry, 1976, 72, 248-54). […]
Binding assays were performed in 96-well microtiter plates in a total assay volume of 100 μL with 5 μg membrane protein for membranes containing the human β2 adrenergic receptor, or 2.5 μg membrane protein for membranes containing the human 01 adrenergic receptor in assay buffer (75 mM Tris/HCl pH 7.4 @ 25° C., 12.5 mM MgCl2, 1 mM EDTA, 0.2% BSA). […] Non-specific binding was determined in the presence of 10 μM unlabeled alprenolol. […] Filter plates were washed three times with filtration buffer (75 mM Tris/HCl pH 7.4 @4° C., 12.5 mM MgCl2, 1 mM EDTA) to remove unbound radioactivity. […] Binding data were analyzed by nonlinear regression analysis with the GraphPad Prism Software package (GraphPad Software, Inc., San Diego, Calif.) using the 3-parameter model for one-site competition. […]

T1 sequence (P07550 whole entry): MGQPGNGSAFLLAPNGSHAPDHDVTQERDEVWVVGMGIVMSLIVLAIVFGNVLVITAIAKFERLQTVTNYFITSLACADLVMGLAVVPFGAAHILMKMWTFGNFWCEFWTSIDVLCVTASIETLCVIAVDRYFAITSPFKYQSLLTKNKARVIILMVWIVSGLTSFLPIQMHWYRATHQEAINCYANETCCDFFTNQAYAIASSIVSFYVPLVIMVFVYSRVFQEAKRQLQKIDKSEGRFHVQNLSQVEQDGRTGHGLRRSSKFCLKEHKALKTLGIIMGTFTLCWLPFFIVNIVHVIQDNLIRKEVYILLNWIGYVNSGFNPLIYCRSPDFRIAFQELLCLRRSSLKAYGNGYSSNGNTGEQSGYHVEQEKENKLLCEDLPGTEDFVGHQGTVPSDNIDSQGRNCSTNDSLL

receptor subtype selectivity, ratio Ki(β1)/Ki(β2): about 18
SMILES: COc1ccc(Oc2ccc(CCNC[C@H](O)c3ccc(O)c4[nH]c(=O)ccc34)cc2)cc1-c1ccccc1 [Example 1, 8-Hydroxy-5-((R)-1-hydroxy-2-{2-[4-(6-methoxybiphenyl-3-yloxy)phenyl]ethylamino}ethyl)-1H-quinolin-2-one]
